# Results as given in ChEMBL document CHEMBL5257089, “Gamabufotalin Induces Apoptosis and Cytoprotective Autophagy through the mTOR Signaling Pathway in Hepatocellular Carcinoma” (J Nat Prod, 2023).
# Active and inactive are the calls of the source. The rule behind the calls is not given here.
# Tests used:
# [1] = tested on: Hep 3B2; assay: Induction of autophagy in human Hep3B cells assessed as reduction in autophagic vesicles at 10 nM incubated for 48 hrs in presence of gamabufotalin by transmission electron microscopy based analysis; assay type: functional, cell-based
# [2] = tested on: Hep 3B2; assay: Induction of apoptosis in human Hep3B cells assessed as late apoptotic cells at 10 nM incubated for 48 hrs in presence of gamabufotalin by Annexin V-FITC/PI staining based flow cytometry method (reference value: 2.2%); assay type: functional
# [3] = tested on: Hep 3B2; assay: Induction of apoptosis in human Hep3B cells assessed as viable cells at 10 nM incubated for 48 hrs in presence of gamabufotalin by Annexin V-FITC/PI staining based flow cytometry method (Rvb =95.7%); assay type: functional; conditions: read-out: Activity
# [4] = tested on: Hep 3B2; assay: Induction of autophagy in human Hep3B cells assessed as restoration of mTOR phosphorylation expression at 10 uM incubated for 48 hrs in presence of gamabufotalin by immunoblot analysis; assay type: functional, cell-based
# [5] = tested on: Huh-7; assay: Induction of autophagy in human Huh-7 cells assessed as reduction in autophagic vesicles at 10 nM incubated for 48 hrs in presence of gamabufotalin by transmission electron microscopy based analysis; assay type: functional, cell-based
# [6] = tested on: Hep 3B2; assay: Induction of apoptosis in human Hep3B cells assessed as reduction in bcl-2 level at 10 uM incubated for 48 hrs in presence of gamabufotalin by immunoblot analysis; assay type: functional, cell-based
# [7] = tested on: Hep 3B2; assay: Induction of autophagy in human Hep3B cells harbouring mCherry-egfp-LC3 assessed as reduction in red puncta ratio at 10 nM incubated for 15 mins in presence of gamabufotalin by laser scanning confocal microscopic analysis; assay type: functional, cell-based
# [8] = tested on: Hep 3B2; assay: Induction of apoptosis in human Hep3B cells assessed as upregulation of caspase-3 level at 10 uM incubated for 48 hrs in presence of gamabufotalin by immunoblot analysis; assay type: functional, cell-based
# [9] = tested on: Huh-7; assay: Induction of autophagy in human Huh-7 cells assessed as restoration of ULK1 phosphorylation expression at 10 uM incubated for 48 hrs in presence of gamabufotalin by immunoblot analysis; assay type: functional, cell-based
# [10] = tested on: Hep 3B2; assay: Induction of autophagy in human Hep3B cells harbouring mCherry-egfp-LC3 assessed as reduction in yellow puncta ratio at 10 nM incubated for 15 mins in presence of gamabufotalin by laser scanning confocal microscopic analysis; assay type: functional, cell-based
# [11] = tested on: Huh-7; assay: Induction of apoptosis in human Huh-7 cells assessed as upregulation of cleaved caspase-3 level at 10 uM incubated for 48 hrs in presence of gamabufotalin by immunoblot analysis; assay type: functional, cell-based
# [12] = tested on: Huh-7; assay: Induction of autophagy in human Huh-7 cells assessed as upregulation of p62 at 10 uM incubated for 48 hrs in presence of gamabufotalin by immunoblot analysis; assay type: functional, cell-based
# [13] = tested on: Huh-7; assay: Induction of apoptosis in human Huh-7 cells assessed as upregulation of bax level at 10 uM incubated for 48 hrs in presence of gamabufotalin by immunoblot analysis; assay type: functional, cell-based
# [14] = tested on: Hep 3B2; assay: Induction of apoptosis in human Hep3B cells assessed as necrotic cells at 10 nM incubated for 48 hrs in presence of gamabufotalin by Annexin V-FITC/PI staining based flow cytometry method (reference value: 0.7%); assay type: functional
# [15] = tested on: Hep 3B2; assay: Induction of apoptosis in human Hep3B cells assessed as necrotic cells at 10 nM incubated for 48 hrs by Annexin V-FITC/PI staining based flow cytometry method (reference value: 0.7%); assay type: functional
# [16] = tested on: Hep 3B2; assay: Induction of apoptosis in human Hep3B cells assessed as upregulation of bax level at 10 uM incubated for 48 hrs in presence of gamabufotalin by immunoblot analysis; assay type: functional, cell-based
# [17] = tested on: Huh-7; assay: Induction of apoptosis in human Huh-7 cells assessed as upregulation of cleaved PARP level at 10 uM incubated for 48 hrs in presence of gamabufotalin by immunoblot analysis; assay type: functional, cell-based
# [18] = tested on: Huh-7; assay: Induction of apoptosis in human Huh-7 cells assessed as late apoptotic cells at 10 nM incubated for 48 hrs by Annexin V-FITC/PI staining based flow cytometry method (reference value: 3.8%); assay type: functional
# [19] = tested on: Hep 3B2; assay: Induction of apoptosis in human Hep3B cells assessed as upregulation of cleaved PARP level at 10 uM incubated for 48 hrs in presence of gamabufotalin by immunoblot analysis; assay type: functional, cell-based
# [20] = tested on: Hep 3B2; assay: Induction of apoptosis in human Hep3B cells assessed as upregulation of PARP level at 10 uM incubated for 48 hrs in presence of gamabufotalin by immunoblot analysis; assay type: functional, cell-based
# [21] = tested on: Huh-7; assay: Induction of autophagy in human Huh-7 cells assessed as downregulation of LC3II/LC3I ratio at 10 uM incubated for 48 hrs in presence of gamabufotalin by immunoblot analysis; assay type: functional, cell-based
# [22] = tested on: Huh-7; assay: Induction of apoptosis in human Huh-7 cells assessed as viable cells at 10 nM incubated for 48 hrs in presence of gamabufotalin by Annexin V-FITC/PI staining based flow cytometry method (reference value: 90.0%); assay type: functional; conditions: read-out: Activity
# [23] = tested on: Huh-7; assay: Induction of apoptosis in human Huh-7 cells assessed as early apoptotic cells at 10 nM incubated for 48 hrs in presence of gamabufotalin by Annexin V-FITC/PI staining based flow cytometry method (reference value: 4.3%); assay type: functional
# [24] = tested on: Hep 3B2; assay: Induction of apoptosis in human Hep3B cells assessed as upregulation of cleaved caspase-3 level at 10 uM incubated for 48 hrs in presence of gamabufotalin by immunoblot analysis; assay type: functional, cell-based
# [25] = tested on: Huh-7; assay: Induction of apoptosis in human Huh-7 cells assessed as necrotic cells at 10 nM incubated for 48 hrs by Annexin V-FITC/PI staining based flow cytometry method (reference value: 1.9%); assay type: functional
# [26] = tested on: Hep 3B2; assay: Induction of apoptosis in human Hep3B cells assessed as late apoptotic cells at 10 nM incubated for 48 hrs by Annexin V-FITC/PI staining based flow cytometry method (reference value: 2.2%); assay type: functional
# [27] = tested on: Hep 3B2; assay: Induction of autophagy in human Hep3B cells assessed as downregulation of LC3II/LC3I ratio at 10 uM incubated for 48 hrs in presence of gamabufotalin by immunoblot analysis; assay type: functional, cell-based
# [28] = tested on: Hep 3B2; assay: Induction of apoptosis in human Hep3B cells assessed as early apoptotic cells at 10 nM measured after 48 hrs by Annexin V-FITC/PI staining based flow cytometry method (reference value: 1.3%); assay type: functional
# [29] = tested on: Hep 3B2; assay: Induction of apoptosis in human Hep3B cells assessed as viable cells at 10 nM incubated for 48 hrs by Annexin V-FITC/PI staining based flow cytometry method (Rvb =95.7%); assay type: functional; conditions: read-out: Activity
# [30] = tested on: Huh-7; assay: Induction of apoptosis in human Huh-7 cells assessed as reduction in bcl-2 level at 10 uM incubated for 48 hrs in presence of gamabufotalin by immunoblot analysis; assay type: functional, cell-based
# [31] = tested on: Huh-7; assay: Induction of autophagy in human Huh-7 cells harbouring mCherry-egfp-LC3 assessed as reduction in red puncta ratio at 10 nM incubated for 15 mins in presence of gamabufotalin by laser scanning confocal microscopic analysis; assay type: functional, cell-based
# [32] = tested on: Huh-7; assay: Induction of apoptosis in human Huh-7 cells assessed as upregulation of PARP level at 10 uM incubated for 48 hrs in presence of gamabufotalin by immunoblot analysis; assay type: functional, cell-based
# [33] = tested on: Huh-7; assay: Induction of autophagy in human Huh-7 cells assessed as restoration of mTOR phosphorylation expression at 10 uM incubated for 48 hrs in presence of gamabufotalin by immunoblot analysis; assay type: functional, cell-based
# [34] = tested on: Huh-7; assay: Induction of apoptosis in human Huh-7 cells assessed as necrotic cells at 10 nM incubated for 48 hrs in presence of gamabufotalin by Annexin V-FITC/PI staining based flow cytometry method (reference value: 1.9%); assay type: functional
# [35] = tested on: Huh-7; assay: Induction of apoptosis in human Huh-7 cells assessed as upregulation of caspase-3 level at 10 uM incubated for 48 hrs in presence of gamabufotalin by immunoblot analysis; assay type: functional, cell-based
# [36] = tested on: Hep 3B2; assay: Induction of apoptosis in human Hep3B cells assessed as early apoptotic cells at 10 nM measured after 48 hrs in presence of gamabufotalin by Annexin V-FITC/PI staining based flow cytometry method (reference value: 1.3%); assay type: functional
# [37] = tested on: Hep 3B2; assay: Induction of autophagy in human Hep3B cells assessed as upregulation of p62 at 10 uM incubated for 48 hrs in presence of gamabufotalin by immunoblot analysis; assay type: functional, cell-based
# [38] = tested on: Huh-7; assay: Induction of apoptosis in human Huh-7 cells assessed as viable cells at 10 nM incubated for 48 hrs by Annexin V-FITC/PI staining based flow cytometry method (reference value: 90.0%); assay type: functional; conditions: read-out: Activity
# [39] = tested on: Huh-7; assay: Induction of apoptosis in human Huh-7 cells assessed as early apoptotic cells at 10 nM incubated for 48 hrs by Annexin V-FITC/PI staining based flow cytometry method (reference value: 4.3%); assay type: functional
# [40] = tested on: Huh-7; assay: Induction of autophagy in human Huh-7 cells harbouring mCherry-egfp-LC3 assessed as reduction in yellow puncta ratio at 10 nM incubated for 15 mins in presence of gamabufotalin by laser scanning confocal microscopic analysis; assay type: functional, cell-based
# [41] = tested on: Hep 3B2; assay: Induction of autophagy in human Hep3B cells assessed as restoration of ULK1 phosphorylation expression at 10 uM incubated for 48 hrs in presence of gamabufotalin by immunoblot analysis; assay type: functional, cell-based
# [42] = tested on: Huh-7; assay: Induction of apoptosis in human Huh-7 cells assessed as late apoptotic cells at 10 nM incubated for 48 hrs in presence of gamabufotalin by Annexin V-FITC/PI staining based flow cytometry method (reference value: 3.8%); assay type: functional
smiles,measurement,setting,value
O=[N+]([O-])c1ccc(Nc2nc(N3CCOCC3)nc(N3CCOCC3)n2)cc1,Activity,[1],Active
same,Activity,[2],20.2%
same,viability at 0.01 µM,[3],67.2%
same,Activity,[4],Active
same,Activity,[5],Active
same,Activity,[6],Active
same,Activity,[7],Active
same,Activity,[8],Active
same,Activity,[9],Active
same,Activity,[10],Active
same,Activity,[11],Active
same,Activity,[12],Active
same,Activity,[13],Active
same,Activity,[14],1.7%
same,Activity,[15],0.1%
same,Activity,[16],Active
same,Activity,[17],Active
same,Activity,[18],2.9%
same,Activity,[19],Active
same,Activity,[20],Active
same,Activity,[21],Active
same,viability at 0.01 µM,[22],76.8%
same,Activity,[23],14.9%
same,Activity,[24],Active
same,Activity,[25],0.7%
same,Activity,[26],3.4%
same,Activity,[27],Active
same,Activity,[28],2.5%
same,viability at 0.01 µM,[29],94%
same,Activity,[30],Active
same,Activity,[31],Active
same,Activity,[32],Active
same,Activity,[33],Active
same,Activity,[34],1.7%
same,Activity,[35],Active
same,Activity,[36],10.9%
same,Activity,[37],Active
same,viability at 0.01 µM,[38],92.6%
same,Activity,[39],3.8%
same,Activity,[40],Active
same,Activity,[41],Active
same,Activity,[42],6.6%
